In US20080188554A1, “METHODS OF TREATING AVIAN HYPERTENSION” (Regents of the University of California Office of …, priority 2006, published 2008):
Like-named read-outs stand apart in the source and are kept apart here.

How the values were obtained:
[1] = target: partially purified recombinant chicken sEH (Gallus gallus, UniProt Q45QT1); test: Inhibitor assay with fluorescent substrate PHOME; type: biochemical; details: PHOME 50 μM
Method: Dilutions of enzyme, inhibitors and substrate were made in BisTris-HCl buffer (25 mM, pH 7.0, 0.1 mg/ml BSA). The enzyme was incubated with 20 μL of inhibitor dilutions for 10 min prior to substrate addition. After this incubation, 50 μL of (3-phenyl-oxiranyl)-acetic acid cyano-(6-methoxy-naphthalen-2-yl)-methyl ester (PHOME) at a final concentration of 50 μM (1% final DMSO content per well) was added.
The inhibitor screen occurred in two steps. The first step was incubation with a final inhibitor concentration of 100 nM. Positive hits obtained in this primary screen were then incubated with inhibitors at final concentrations of 1, 10, and 100 nM.

[2] = tested on: chicken sEH phosphatase activity; test: Phosphatase assay; type: biochemical; details: conditions developed for the mammalian enzyme phosphatase assay
Method: The phosphatase substrate, threo-9,10-phosphonooxy-hydroxy-octadecanoic acid was synthesized as previously described (Newman, J. W. et al., Proc. Natl. Acad. Sci. USA 100: 1558-1563 (2003)). The assay was performed and analyzed by HPLC-MS/MS as described (Newman, J. W. et al., Proc. Natl. Acad. Sci. USA 100:1558-1563 (2003)).

[3] = target: T1, Recombinant chicken sEH (Gallus gallus, UniProt Q45QT1); test: Radiotracer epoxide hydrolase activity and kinetic parameters using t-DPPO as substrate; type: biochemical
Method: (§1) Epoxide hydrolase activity was measured using racemic [^3H]-trans-1,3-diphenylpropene oxide (t-DPPO) as substrate (Borhan, B. et al., Anal. Biochem. 231:188-200 (1995)). t-DPPO was previously synthesized and purified Borhan, B. et al., Anal. Biochem. 231:188-200 (1995)). 1 μL of a 5 mM solution of [^3H]t-DPPO in DMF was added to 100 μL of enzyme preparation in sodium phosphate buffer (0.1 M, pH 7.4) containing 0.1 mg/mL of BSA ([S]final=50 μM). The enzyme was incubated at 30 °C for 10 min, and the reaction quenched by addition of 60 μL of methanol and 200 μL of isooctane, which extracts the remaining epoxide from the aqueous phase. Extractions with 1-hexanol were performed in parallel to assess the possible presence of glutathione transferase activity which could also transform the substrate (Borhan, B. et al., Anal. Biochem. 231:188-200 (1995)). The activity was followed by measuring the quantity of radioactive diol formed in the aqueous phase using a scintillation counter (Wallac Model 1409, Gaithersburg, Md.). Assays were performed in triplicate.
A solution of [^3H] t-DPPO (1 μL in DMF) was added to 100 μL of enzyme preparation in sodium phosphate buffer (0.1 M, pH 7.4) containing 0.1 mg/mL of BSA ([S]final=50 μM). The Km determination was performed by fitting the data to the Michaelis-Menten equation using the nonlinear regression algorithm in SigmaPlot (SPSS, Inc., Chicago, Ill.) with an R-squared value of at least 0.97. The standard deviation was generated by performing the experiment three separate times in triplicate.

[4] = target: T2, mouse sEH (Mus musculus, UniProt P34914); details: t-DPPO as substrate, from Morisseau 2000; cited from earlier work
T2 sequence (P34914 1-554): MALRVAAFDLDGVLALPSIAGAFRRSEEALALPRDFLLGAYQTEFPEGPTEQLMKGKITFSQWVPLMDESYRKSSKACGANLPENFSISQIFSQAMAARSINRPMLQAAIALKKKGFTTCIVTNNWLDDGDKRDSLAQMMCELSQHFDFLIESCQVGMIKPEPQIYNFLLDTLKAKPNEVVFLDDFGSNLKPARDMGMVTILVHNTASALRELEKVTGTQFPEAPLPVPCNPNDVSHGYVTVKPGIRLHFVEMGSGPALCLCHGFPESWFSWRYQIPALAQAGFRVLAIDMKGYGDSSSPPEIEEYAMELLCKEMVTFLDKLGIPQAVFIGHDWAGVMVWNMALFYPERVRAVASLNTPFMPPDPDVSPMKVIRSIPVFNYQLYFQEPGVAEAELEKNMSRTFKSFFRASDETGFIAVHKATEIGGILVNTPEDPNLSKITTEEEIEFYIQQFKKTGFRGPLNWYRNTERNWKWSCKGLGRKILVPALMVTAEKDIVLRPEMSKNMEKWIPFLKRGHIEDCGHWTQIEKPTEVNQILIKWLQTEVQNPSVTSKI

[5] = target: T3, sEH (Homo sapiens, UniProt P34913); details: t-DPPO as substrate, from Morisseau 2000; cited from earlier work
T3 sequence (P34913 1-555): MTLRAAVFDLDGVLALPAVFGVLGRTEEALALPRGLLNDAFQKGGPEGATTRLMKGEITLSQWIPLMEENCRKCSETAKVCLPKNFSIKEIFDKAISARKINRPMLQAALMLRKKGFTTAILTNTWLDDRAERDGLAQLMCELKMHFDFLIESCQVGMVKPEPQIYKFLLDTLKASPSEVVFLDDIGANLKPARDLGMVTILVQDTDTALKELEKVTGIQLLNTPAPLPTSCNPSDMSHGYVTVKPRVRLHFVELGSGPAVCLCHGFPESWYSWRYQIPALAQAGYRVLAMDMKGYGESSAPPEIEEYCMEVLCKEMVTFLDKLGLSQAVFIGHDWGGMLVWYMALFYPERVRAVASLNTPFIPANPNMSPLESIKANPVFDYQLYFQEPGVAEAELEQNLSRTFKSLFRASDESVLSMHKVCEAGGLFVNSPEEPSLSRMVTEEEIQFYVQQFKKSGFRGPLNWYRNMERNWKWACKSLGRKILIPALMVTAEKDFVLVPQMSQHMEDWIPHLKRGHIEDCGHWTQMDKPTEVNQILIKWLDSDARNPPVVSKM

[6] = target: T1, Recombinant chicken sEH; test: Non-radioactive epoxide hydrolase assay (HPLC-MS/MS), specific activity of substrates; type: biochemical; details: for Specific activity: compound as substrate, 50 μM, 30° C., 10 min
Method: The trans-9,10-epoxystearate was purchased (Sigma-Aldrich). A 5 mM solution of each substrate was made in ethanol for the EETs and methanol for the epoxystearate. The substrate solution (1 μL) was added to 100 μL of enzyme preparation in sodium phosphate buffer (0.1 M, pH 7.4) containing 0.1 mg/mL of BSA ([S]final=50 μM). The enzyme was incubated with the substrate at 30° C. for 10 min, and the reaction quenched by addition of 400 μL of methanol. The products were analyzed by HPLC-MS/MS as previously described (Newman, J. W. et al., J. Lipid Res. 43:1563-1578 (2002)) with the following exceptions. A 2.0×20 mm, 3-μm Luna C18 Mercury MS column (Phenomenex, Torrance, Calif.) was used with a 350 μL/min isocratic flow of […] (vol/vol/vol) acetonitrile/water/methanol with 0.1% glacial acetic acid for 2.5 min. Assays were performed in triplicate.

[7] = target: T2, mouse sEH; details: compound as substrate, from Chacos 1983; cited from earlier work
[8] = target: T1, Recombinant chicken sEH; test: IC50 determination using [3H]-t-DPPO as substrate; type: biochemical
Method: The IC50 values reported herein were determined using racemic [^3H]-trans-1,3-diphenylpropene oxide (t-DPPO) as a substrate (Borhan, B. et al., Anal. Biochem. 231:188-200 (1995)). The inhibitors were synthesized as described (Morisseau, C. et al., Biochem. Pharmacol. 63:1599-1608 (2002)). Extracts of broiler hepatic cytosol or partially purified enzyme was diluted 50-fold in pH 7.4 0.1 M sodium phosphate buffer containing 0.1 mg/mL BSA, then incubated with the inhibitors for 5 min at 30° C. prior to substrate introduction. Prepared samples were incubated at 30° C. for 10 min and stopped as indicated above. Conditions used gave rates that were linear both with time and enzyme concentration. Assays were performed in triplicate. By definition, IC50 is the concentration of inhibitor that reduces enzyme activity by 50%. IC50 was determined by regression with a minimum of two points in the linear region of the curve on either side of the IC50 (for a total of 5 points). The curve was generated from at least three separate studies conducted in triplicate in order to obtain the standard deviation given in the results section.

[9] = substrate: c1ccc(CC2OC2c2ccccc2)cc1; test: Radiotracer epoxide hydrolase activity and kinetic parameters using t-DPPO as substrate; type: biochemical; details: other: t-DPPO as substrate; recombinant chicken sEH; pH 7.4; 30.0 °C
Method: as §1
A solution of [^3H] t-DPPO (1 μL in DMF) was added to 100 μL of enzyme preparation in sodium phosphate buffer (0.1 M, pH 7.4) containing 0.1 mg/mL of BSA ([S]final=50 μM). […]

[10] = partially purified recombinant chicken sEH, read-out: Chicken sEH IC50

With `O=C(O)CCCCCCCCCCCNC(=O)NC12CC3CC(CC(C3)C1)C2` [Compound 700] the IC50 ([1]; Chicken sEH IC50, partially purified recombinant chicken sEH) was 12.6 ± 1.6 nM.

For “threo-9,10-phosphonooxy-hydroxy-octadecanoic acid”, the “Hydrolysis of phosphatase substrate by chicken enzyme” value [2] was “did not hydrolyze”.

With `O=C(NCCCc1ccccc1)NC1CCC(Oc2ccc(F)cc2)CC1` (stereo not drawn) [Compound 1270] the IC50 [1, 10] was 3.5 ± 0.1 nM.

With `c1ccc(CC2OC2c2ccccc2)cc1` (racemic) [t-DPPO, trans-1,3-diphenylpropene oxide] the “kcat/Km ratio of chicken enzyme, fold lower than human enzyme” value ([3]; compared to human sEH) was 20 fold, the “kcat/Km ratio of chicken enzyme, fold lower than mouse enzyme” value ([3]; compared to mouse sEH) was 100 fold and the Specific activity ([3]; recombinant chicken sEH, mean ± SD of 3 experiments) was 823.1 ± 27.3 nmol/min/mg. For the same molecule, the Km [4] was 4.3 µM, the Specific activity [4] was 17000 ± 300.0 nmol/min/mg and the kcat [4] was 18.0 ± 0.3 s⁻¹. For the same molecule, the Km [5] was 6.2 µM, the Specific activity [5] was 4500 ± 200.0 nmol/min/mg and the kcat [5] was 4.3 ± 0.3 s⁻¹.

In the case of `CCCCC/C=C\CC1OC1C/C=C\C/C=C\CCCC(=O)O` (stereo not drawn) [11,12-EET], the Specific activity [6] is given as 12.0 ± 1.2 nmol/min/mg and the Specific activity [7] is given as 640.0 nmol/min/mg.

In the case of `CCCCCC1OC1C/C=C\C/C=C\C/C=C\CCCC(=O)O` (stereo not drawn) [14,15-EET], the “Activity relative to the activity measured with t-DPPO” value [6] is listed as “less than 1/30”, the Specific activity [6] is listed as 24.5 ± 2.1 nmol/min/mg and the Specific activity [7] is listed as 1260.0 nmol/min/mg.

In the case of `CCCCCOC(=O)C1CCCC(NC(=O)NC23CC4CC(CC(C4)C2)C3)C1` (stereo not drawn) [Compound 861], the IC50 [1, 10] is reported as 5.7 ± 0.3 nM.

`O=C(NC1CCCCCCC1)NC1CCC(Oc2ccc(F)cc2)CC1` (stereo not drawn) [Compound 1272] gave an IC50 [1, 10] of 5.1 ± 0.3 nM.

In the case of `O=C(NC1CCCCCC1)NC1CCC(Oc2ccc(F)cc2)CC1` (stereo not drawn) [Compound 1271], the IC50 [1, 10] is reported as 2.7 ± 0.3 nM.

Molecule `O=C(Nc1cccc(C(F)(F)F)c1)NC1CCC(OCc2c(F)cccc2F)CC1` (stereo not drawn) [Compound 1285] has an IC50 [1, 10] of 4.4 ± 0.1 nM.

For `O=C(NCCCc1ccccc1)NC1CCC(OCc2c(F)cccc2F)CC1` (stereo not drawn) [Compound 1318], the IC50 [1, 10] was 1.9 ± 0.1 nM.

Molecule `CC(C)=CCOC1CCC(NC(=O)NC23CC4CC(CC(C4)C2)C3)CC1` (stereo not drawn) [Compound 983] has an IC50 [1, 10] of 5.3 ± 0.2 nM.

Work on `O=C(Nc1cccc(Br)c1)NC1CCC(OCc2c(F)cccc2F)CC1` (stereo not drawn) [Compound 1308] yielded an IC50 [1, 10] of 2.4 ± 0.1 nM.

`O=C(Nc1cccc(Cl)c1)NC1CCC(OCc2c(F)cccc2F)CC1` (stereo not drawn) [Compound 1302] showed an IC50 [1, 10] of 2 ± 0.1 nM.

Work on `O=C(Nc1ccc(C(F)(F)F)cc1)NC1CCC(OCc2c(F)cccc2F)CC1` (stereo not drawn) [Compound 1289] yielded an IC50 [1, 10] of 3.5 ± 0.1 nM.

In the case of `O=C(NC1CCCCCC1)NC1CCC(Oc2ccc(F)cc2)CC1` (stereo not drawn) [Compound 1515], the IC50 [1, 10] is reported as 2.6 ± 0.1 nM.

For `CCCCC/C=C\C/C=C\CC1OC1C/C=C\CCCC(=O)O` (stereo not drawn) [8,9-EET], the Specific activity [6] is listed as 11.6 ± 0.1 nmol/min/mg and the Specific activity [7] is listed as 370.0 nmol/min/mg.

Work on `C=CCOC1CCC(NC(=O)NC23CC4CC(CC(C4)C2)C3)CC1` (stereo not drawn) [Compound 982] yielded an IC50 [1, 10] of 1.7 ± 0.1 nM.

Molecule `O=C(O)CCCCCCCCCCCNC(=O)NC12CC3CC(CC(C3)C1)C2` [AUDA, 12-(3-Adamantan-1-yl-ureido)dodecanoic acid] has an IC50 [8] of 13.7 nM.

For `CCCCCOC(=O)C1CCC(NC(=O)NC23CC4CC(CC(C4)C2)C3)CC1` (stereo not drawn) [Compound 863], the IC50 [1, 10] was 5.2 ± 0.2 nM.

B1: Recombinant chicken sEH (Gallus gallus) (protein)
chain: MARRFALFDLGGVLFGPGLQHFLGSCERSYALPRNFLRDVLFAGGSDSPHAKVMRGQITLSQLFLEVDEGCRQHASTAGITLPTTFSIAHVFEEMAAKGTLNAPLLRAASMLRRNGFKTCVFTNNWVDDSMGRLFTSSLLTVVQRHFDLLIESCRVGLHKPDPRIYTYALEVLQAQPQEVIFLDDIGENLKPAREMGMATILVRDTDTVLKELQELSGVQLLQQEEPLPTTCDPATMSHGYVPIRPGVQLHFVEMGHGPAICLCHGFPESWLSWRYQIPALADAGFRVIALEMKGYGESTAPPEIEEYSQEQICKDLTIFLDKLGIPQAVFIGHDWGGAVVWNMALFYPERVRAVASLNTPYRPADPTVDIVETMKSFPMFDYQFYFQEPGVAEAELEKDIGRTLKALIRSTRPEDRLHSVPGLLGVQERGGLLVGFPEDIPESLILHGAELQYYIERFQRSGFRGPLNWYRNMRPNWRWALSAKDRKILMPALMVTAGKDVVLLPSMSKGMEEWIPQLRRGHLEACGHWTQMERPAALNRILVEWLEGLPPDGAMLRVSRL
Work on B1 yielded a Km [9] of 25.3 µM.
